Earlier results in EP4512393A1, “COMBINATION OF SODIUM DICHLOROACETATE AND VALPROIC ACID SALTS FOR THE TREATMENT OF VIRAL AND BACTERIAL INFECTIONS AND INFLAMMATORY DISEASES” (Lietuvos sveikatos mokslu universitetas, priority 2023, dated 2025).

Test system: leukocyte migration into the peritoneal cavity
Details: peritonitis-induced male rat model

CCCC(CCC)C(=O)O [VPA, 2-n-propyl-pentanoic acid]
inhibition of leukocyte migration into the peritoneal cavity: 92%
